Reference: publication PMC5974162, “Characterization of Ferredoxin-Dependent Biliverdin Reductase PCYA1 Reveals the Dual Function in Retrograde Bilin Biosynthesis and Interaction With Light-Dependent Protochlorophyllide Oxidoreductase LPOR in Chlamydomonas reinhardtii” (Frontiers in Plant Science, 2018)

Target: T1, DtenPHY1 (Dolichomastix tenuilepis, UniProt A0A097CKJ3)
T1 construct: gene PHY; Twin-Strep-tag kept; expressed in Chlamydomonas CC400 cytosol, also in E. coli LMG194/pPL-PCB as control
T1 sequence (A0A097CKJ3 entry or part of it): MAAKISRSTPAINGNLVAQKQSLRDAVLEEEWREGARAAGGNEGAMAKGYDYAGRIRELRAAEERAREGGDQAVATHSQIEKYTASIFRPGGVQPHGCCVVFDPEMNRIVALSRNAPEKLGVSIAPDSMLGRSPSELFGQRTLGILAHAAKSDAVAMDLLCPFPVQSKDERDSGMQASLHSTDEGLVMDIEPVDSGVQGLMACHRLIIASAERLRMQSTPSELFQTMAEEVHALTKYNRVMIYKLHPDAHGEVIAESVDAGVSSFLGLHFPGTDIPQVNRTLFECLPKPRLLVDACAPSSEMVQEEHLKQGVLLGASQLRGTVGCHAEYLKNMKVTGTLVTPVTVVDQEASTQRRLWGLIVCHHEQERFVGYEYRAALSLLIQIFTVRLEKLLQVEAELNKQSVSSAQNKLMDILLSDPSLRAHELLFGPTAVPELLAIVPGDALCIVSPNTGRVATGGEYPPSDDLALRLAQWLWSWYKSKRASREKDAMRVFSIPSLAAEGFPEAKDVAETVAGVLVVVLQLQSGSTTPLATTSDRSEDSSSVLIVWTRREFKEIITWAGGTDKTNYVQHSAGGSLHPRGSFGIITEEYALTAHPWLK
Test: zinc-dependent fluorescence of SDS-PAGE blot
Type: binding
Conditions: covalent; in vitro assembly with added PCB, TES pH 8.0, room temperature, ~2 h, dark; also without added PCB

## CC=C1C(=Cc2[nH]c(C=C3N=C(C=C4NC(=O)C(CC)=C4C)C(C)=C3CCC(=O)O)c(CCC(=O)O)c2C)NC(=O)C1C (stereo not shown) [PCB, phycocyanobilin]
  zinc-dependent fluorescence of SDS-PAGE blot: DtenPHY1 purified from Chlamydomonas CC400 covalently binds phycocyanobilin (PCB)
